“And” between values parts separate entries of the source, which are not always exact repeats. Identical values can stand only once.
Tests used:
[1] = Human HepG2 cell viability dose-response assay; assay type: toxicity, cell-based
[2] = Human HepG2 cell viability assay in 384 well format; assay type: toxicity, cell-based; design: dose 125 nL, time 70.5 hour; cytotoxicity at 70.5 h: concentration not given beside the values; conditions: HepG2 cells, read-out: Inhibition

SMILES	cytotoxicity at 70.5 h [2] [%]	also measured
O=C(Cn1cnc2ccccc2c1=O)Nc1cc(C2CC2)n[nH]1	107	BOTTOM [1]: -7.289 and -9.306; HILLSLOPE [1]: 2.407 and 2.226; TOP [1]: 101 and 100.4; pXC50 [1]: 6.137 and 6.176
Cl.Clc1cccc(N[C@H]2CCCN[C@H]2Cc2ccccc2)c1	104	BOTTOM [1]: 3.022 and 5.09; HILLSLOPE [1]: 10.78 and 7.141; TOP [1]: 102.1 and 102.6; pXC50 [1]: 5.327 and 5.334
C/N=C1\c2cc3cc(OC)ccc3n2CCN1Cc1ccccc1.O=C(O)C(F)(F)F	68.5	BOTTOM [1]: -10.9 and -4.699; HILLSLOPE [1]: 1.421 and 1.435; TOP [1]: 100; pXC50 [1]: 5.16 and 5.151
CN(CCNC(=O)Nc1nccs1)Cc1ccc(F)cc1	-13.1	
CCc1cccc(NS(=O)(=O)c2cc3c(c(C(=O)O)c2)OCCO3)c1	4.16	
CCN(Cc1cnn(CC)c1)C(=O)Cn1c(=O)c(C)nc2ccccc21	-17.7	
CN(C)C(=O)COC1COC2(CCN(CC3CCOCC3)CC2)C1 (configuration not stated)	-4.78	
CC(C)Sc1ccc(C(C)Nc2nc3c(cnn3C)c(=O)[nH]2)cc1 (configuration not stated)	-3.27	
COc1cccc(CNC(=O)c2ccccc2-n2cnc(CN)c2)c1	17	
COC(=O)Cn1c(=O)nc2n1C(=O)N(c1ccc(C)cc1)C2	13.2	
O=C(C1CC1)N1CCC2(CC1)CNCc1ccccc12	18.9	
Cc1nc(C)n(CC2CCCN2Cc2nc(C3CC3)no2)n1 (configuration not stated)	-5.43	
CCOCC1CN(Cc2ccsc2)Cc2cnn(C)c21 (configuration not stated)	-0.486	
O=C(C1CCCCC1)N1CCC(n2nc(-c3ccco3)ccc2=O)CC1	-0.841	
CN(Cc1ccc2c(c1)OCCO2)Cn1nc(C(C)(C)C)ccc1=O	12.7	
O=C(C1CC=CC1)N1CCCn2nnc(CNc3ncccn3)c2C1	0.685	
CCN(Cc1ccoc1)C(=O)c1ccc(C)c(S(N)(=O)=O)c1	-10.2	
COc1ccc(Br)cc1SCCS(C)(=O)=O	-4.19	
O=C(NCc1ccc(-n2cncn2)nc1)c1cc(Cl)c2c(c1)OCCO2	-3.48	
Cn1cccc1CN1CCC2(CC1)CC(Oc1cccnc1)C2	6.62	
CC(C)(C)C(=O)NC(c1nccs1)C1CCN(CC2CCCCC2)CC1 (configuration not stated)	33.7	
CCn1nc(C)c(CNC(=O)C2COc3ccccc3C2)c1C (configuration not stated)	-8.01	
COC1(CNC(=O)c2cccc(C#N)c2)CCSC1 (configuration not stated)	42.8	
Cn1ccnc1C1(O)CCN(C(=O)Cc2ccccc2)CC1	-6.34	
CC(C)c1n[nH]c(C2CN(C(=O)c3cc4c(s3)CCC4)CCO2)n1 (configuration not stated)	-8.59	

SMILES	cytotoxicity at 70.5 h [2] [%]	also measured
CCC(=O)N(CCC(=O)O)Cc1ccc(F)c(F)c1	-7.91	
Cc1nc(CN(C)Cc2nc(-c3ccncc3)no2)co1	3.9	
Cc1cc(C(=O)N2CCO[C@H]3[C@H](OCCN(C)C)CC[C@@H]32)c(C)[nH]1	-9.02	
CC(C)N1CCC2(CC1)CN(C)C(=O)C[C@H]2C(F)(F)F	-7.67	
Cc1nc(C)c(C(=O)N2CCc3nc4c(C)csc4c(=O)n3CC2)s1	0.911	
Cc1ccc(-c2nc(CNC3CCc4ncnn4C3)cs2)cc1 (configuration not stated)	2.93	
Cn1cnc2c1C(COCC1CCOCC1)CN(C1CCOCC1)C2 (configuration not stated)	-25.6	
Nc1cc(-c2cncnc2C2CCN(C(=O)c3ccccc3)C2)ccn1 (configuration not stated)	2.08	
CC1=Nc2c(c(=O)[nH]n2C(C)C)C(c2cccs2)S1 (configuration not stated)	-8.68	
CC(C)[C@@H]1CN(C(=O)NCCc2ccccc2)C[C@H]1NS(=O)(=O)N(C)C	2.29	
CC1(C)Cc2ccccc2-c2nc(NCCO)[nH]c(=O)c21	-8.18	
O=C(CC1CSc2nccc(=O)n21)NCc1cc(-c2ccco2)on1 (configuration not stated)	-11.9	
CCc1cnc(CN2CCC(N(Cc3noc(CC)n3)C(C)=O)C2)o1 (configuration not stated)	-9.22	
CSc1ccc(NC(=O)NCC(O)C(C)C)cc1F (configuration not stated)	4.17	
Cc1nonc1OCCNC(=O)CCCc1ccc(Cl)cc1	-5.01	
CNc1cc2c(nn1)CCN(C(=O)c1ccc(-n3cccn3)nc1)C2	-14.4	
Cc1noc(CNc2ccc(C(=O)N3CCCC(C)C3)cc2C)n1 (configuration not stated)	-6.32	
CS(=O)(=O)N1CC2(CCCN(C3COC3)C2)Cc2ccccc21 (configuration not stated)	-3.97	
Cc1cccc2c1cnn2CCCNC(=O)c1cnn(C)c1	-2.01	
Cc1nc(C)c(C(=O)N2Cc3ccccc3OCC2Cn2ccnc2)s1 (configuration not stated)	2.25	
Cc1cc(C(=O)NCC(C)N2CCc3ccccc32)on1 (configuration not stated)	7.49	
O=C(c1cnccn1)N1CCN(CC2CC2)c2ncccc2C1	5.88	
CC(Cc1c(F)cccc1F)NC(=O)NCc1ncnn1C (configuration not stated)	-2.54	
O=C(NCc1cccnc1N1CCc2ccccc2C1)c1cc(=O)[nH][nH]1	-3.06	
O=C(NCCC(=O)N1CCCc2ccccc21)c1c(O)cc(F)cc1F	-9.76	

SMILES	cytotoxicity at 70.5 h [2] [%]	also measured
COCCC(=O)N1CCCC([C@@H]2C[C@H](C(F)F)n3ncnc3N2)C1 (some centres not stated)	-4.06	
Cn1c(=O)ccn(CC(=O)Nc2cnccc2O)c1=O	-4.1	
CCCC1(CO)CCCN(C(=O)CNC(C)=O)C1 (configuration not stated)	-10.4	
Cc1noc(C)c1CCC(=O)N(C)C(C)c1cccs1 (configuration not stated)	-11.3	
c1cncc(OCc2n[nH]c3c2CN(Cc2cccs2)C3)c1	-6.87	
Cc1ccc(OCCC(=O)N2CCN(c3cnccn3)CC2)cc1C	-4.94	
Cc1cccnc1CN1CCN(CC(=O)N(C)C)[C@@H]2CS(=O)(=O)C[C@@H]21	-5.23	
CCOCC1CN(S(=O)(=O)c2ccccc2)Cc2nccn2C1 (configuration not stated)	13.5	
CC(C)(C)c1n[nH]cc1CNC1CCC(O)CC1 (configuration not stated)	-19.6	
CN1CCCC(C(=O)N2CCC(Oc3ncccn3)CC2)C1 (configuration not stated)	-4.47	
CC(C)c1nnc(CN2CCN(CC(O)c3ccccc3)CC2)o1 (configuration not stated)	-0.811	
CN1CCN(CCCNCc2cc(O)c3cc(F)ccc3n2)CC1	-4.99	
Cc1cccc2cc(CN3CCCN4CCC[C@H]4C3)c(=O)[nH]c12	1.79	
O=S(=O)(Nc1cnc(N2CCOCC2)nc1)c1cccc(F)c1	1.23	
O=C1NCCN1C1CCN(Cc2nc(-c3ccsc3)no2)CC1	32.4	
CCS(=O)(=O)N1CC(=O)N(CCOc2ccccc2)CC(O)C1 (configuration not stated)	-2.23	
CC(C)Cc1noc(CN2CCOCC2)n1	-0.996	
COCCN(Cc1ccoc1)S(=O)(=O)c1ccc(F)c(Cl)c1	42.1	
Cc1ccc(CNC2(Cc3cc(CC(C)C)on3)COC2)o1	9.27	
CCC(C)(CC(=O)O)NC(=O)Cc1ccccc1F (configuration not stated)	26.6	
Cc1c(C)n2c(SCC(=O)N3CCCCCC3)nnc2[nH]c1=O	-7.58	
Cc1nn(-c2ccc(F)cc2)c2[nH]nc(N)c12	8.73	
Cc1noc(-c2cccnc2N(C)Cc2ccc([S+](C)[O-])cc2)n1 (configuration not stated)	-3.37	
COCCN1CCCc2sc(C(=O)NCC3CCCO3)nc21 (configuration not stated)	31.2	
CCOC(=O)c1cnn(C2CCN(C(=O)CC3C=CCC3)CC2)c1N (configuration not stated)	-1.64	

Source: ChEMBL document CHEMBL3507680, “University of Dundee, Gates Library screen for HepG2 cell viability”
